From patent US11241427B2, “Small molecule modulators of NR2F6 activity” (Regen Biopharma, Inc., priority 2015, dated 2022) come the findings set out here.

The target of this experiment is T1, NR2F6 (ligand binding domain, amino acids 163-404) (Homo sapiens, UniProt P10588).
T1 construct: HIS (N, cleaved yes); FLAG (N, cleaved yes); TEV site (N, cleaved yes); made in house; host or cells: E. coli BL21 (DE3)
T1 sequence (P10588 163-404): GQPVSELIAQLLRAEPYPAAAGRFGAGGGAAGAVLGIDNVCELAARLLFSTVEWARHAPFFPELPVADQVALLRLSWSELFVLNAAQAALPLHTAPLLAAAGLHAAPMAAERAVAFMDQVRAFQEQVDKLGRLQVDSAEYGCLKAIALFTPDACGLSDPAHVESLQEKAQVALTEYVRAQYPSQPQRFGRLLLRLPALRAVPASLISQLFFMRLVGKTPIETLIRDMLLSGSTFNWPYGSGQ
Description: Thermoshift analysis (TSA) of compound binding to NR2F6. The settings on record: for Tm: NR2F6 alone Tm 48 °C. The protocol:
The binding interaction between target protein NR2F6 and 139 compounds selected from an in silico screen was assessed using thermoshift analysis (TSA). Thermoshift is a physical technique used to determine the melting temperature of a protein. The interaction of the ligand to the folded state of the protein shifts the melting temperature. In the experimental system used, the NR2F6 protein is mixed with the ligand and the fluorescent dye SYPRO Orange®. The fluorescence is monitored over temperature gradient between 20 and 95° C. with 0.5° C. increment. The dye binds to the hydrophobic regions of molten globules and denatured proteins resulting in an increase of fluorescence. A plot of the fluorescence is obtained and used to determine the melting temperature in absence and presence of ligand.
The ligand binding domain of NR2F6 (amino acids 163-404) was cloned for soluble expression in E. coli with an N-terminal HIS-FLAG-TEV-tag. Expression was performed in BL21 (DE3) cells. In brief, a 12L E. coli culture was induced with IPTG in logarithmic phase and further incubated over night at 18° C. Cells were harvested via centrifugation, washed with buffer and stored at […] until purification.
The purification procedure performed consists of HIS affinity chromatography, tag cleavage, negative affinity chromatography, size exclusion chromatography and ion exchange chromatography.
Thermoshift analysis was performed on 139 Compounds that were stored as powder in DMSO stocks. A reaction volume of 25 μl was used, with reaction temperatures being increased in 0.5 increments from 20-95° C. in 96 well, PCR plates (Hard-Shell®, HSP-9655). The control was NR2F6 protein alone in 1% DMSO. For performing the reaction, a reaction buffer comprising of the following was utilized: 20 mM HEPES pH 6.85, 150 mM NaCl, 10% Glycerin and 0.5 mM TCEP.
The following pipetting sequence was used: 1) Add appropriate volume of target enzyme in reaction buffer; 2) Add appropriate volume of dye SYPRO Orange® in reaction buffer; 3) Add inhibitor in 100% DMSO (1% final DMSO conc); 4) Measure fluorescence
Fluorescence was quantified using a CFX Connect™ Real-Time PCR Detection System (BioRad)
An increase in melting temperature is indicative for compound binding.

[1] abbreviates: Table 1.1, 100 μM compound, 0.5 mg/ml NR2F6, 1% DMSO.
Setting [2] is: Table 1.1, 100 μM compound, shift versus NR2F6 alone (Tm 48 °C).
Setting [3] is: Table 1.1, 100 μM compound, shift versus NR2F6 alone (Tm 48 °C), read-out: delta Tm.

Read-outs that look alike come from different tables or passages of the source.

Consider `COc1ccc(CN(C)c2ccc(S(=O)(=O)N3CCN(C)CC3)cc2[N+](=O)[O-])cc1OC` [Cpd 129], for which, under setting [1], the Tm was found to be 47.5 °C. The “delta Tm” value under setting [2] is −0.5 °C.
For `C[C@]12CC[C@@H]3c4ccc(O)cc4CC[C@H]3[C@@H]1CC[C@@H]2O` [Cpd 65, 17b-Estradiol] the same measures were 47 °C and −1 °C.
Consider `S=C(NCCc1ccccc1)Nc1cccc2cnccc12` [Cpd 136], for which, under setting [1], the Tm worked out at 47.5 °C. The “delta Tm” value under setting [2] was −0.5 °C.
In the case of `C[C@H](CCC(=O)NCCS(=O)(=O)O)[C@H]1CC[C@H]2[C@@H]3CC[C@@H]4C[C@H](O)CC[C@]4(C)[C@H]3C[C@H](O)[C@]12C` [Cpd 81, Taurodeoxycholic acid], the Tm under setting [1] came out at 47.5 °C. Moreover, under setting [3], the ΔTm at 100 µM was -0.5 °C.
Consider `CC(=O)c1c(C)[nH]c(C(=O)OCCCCN2C(=O)c3ccccc3C2=O)c1C` [Cpd 121], for which the Tm under setting [1] was found to be 48 °C. In addition, under setting [2], the “delta Tm” value was determined as 0 °C.
As to `CCN(CC)S(=O)(=O)c1cccc(NC(=O)CNc2cccc(S(=O)(=O)N3CCCC3)c2)c1` [Cpd 133], the Tm stood at 49 °C under setting [1] and 49 °C (Table 1.2, 100 μM compound). The ΔTm at 100 µM under setting [3] came to 1 °C.
For `Clc1cnc(Oc2ccc(Oc3ncc(Cl)cc3Cl)cc2)c(Cl)c1` [Cpd 70, TCPOBOP], the Tm under setting [1] is 48 °C. In addition, under setting [2], the “delta Tm” value was determined as 0 °C.
Regarding `CCCCCCCC/C=C\CCCCCCCC(=O)NCCO` [Cpd 76, N-Oleoylethanolamide], the Tm under setting [1] worked out at 48.5 °C. In addition, the “delta Tm” value under setting [2] was 0.5 °C.
For `O=Cc1c2c(cc3c1=Nc1ccccc1-3)=Nc1ccccc1-2` [Cpd 17, 6-Formylindolo [3,2-B] carbazole], where the note is “Table 1.2, 100 μM compound”, the Tm came to 50 °C.
As to `CCCc1c(OCCCCc2nnn[nH]2)ccc(C(C)=O)c1O` [Cpd 67, LY 171883], the Tm under setting [1] was determined as 46.5 °C. Besides, the ΔTm at 100 µM under setting [3] is -1.5 °C.
As to `O=C(Nc1ccncc1)c1ccc(Cl)c(S(=O)(=O)N2CCc3ccccc32)c1` [Cpd 132], the Tm under setting [1] was found to be 47.5 °C. The “delta Tm” value under setting [2] was −0.5 °C.
For `Cc1nn(C)c(C)c1NC(=O)COc1ccc(Cl)cc1Br` [Cpd 127] the same measures were 47.5 °C and −0.5 °C.
For `CCCCC/C=C/C=C1/C(=O)C=C[C@@H]1C/C=C\CCCC(=O)O` [Cpd 73, 15-Deoxy-D12,14-prostaglandin J2], under setting [1], the Tm is 48 °C. In addition, the “delta Tm” value under setting [2] came to 0 °C.
Take `Cc1cccc(Nc2cc(Cl)nc(SCC(=O)O)n2)c1C` [Cpd 66, WY-14643]: the Tm under setting [1] is 47.5 °C. Moreover, the ΔTm at 100 µM under setting [3] was -0.5 °C.
Regarding `C[C@H](CCC(=O)NCCS(=O)(=O)O)[C@H]1CC[C@H]2[C@@H]3[C@H](O)C[C@@H]4C[C@H](O)CC[C@]4(C)[C@H]3C[C@H](O)[C@]12C` [Cpd 75, Taurocholic acid], the ΔTm at 100 µM was -0.5 °C. The Tm under setting [1] stood at 47.5 °C.
On to `CC(C)(Sc1ccc(CCN(CCCCC2CCCCC2)C(=O)NC2CCCCC2)cc1)C(=O)O` [Cpd 74, GW 7647], for which the Tm under setting [1] turned out to be 45.5 °C. For the same molecule, under setting [3], the ΔTm at 100 µM was -2.5 °C.
Regarding `CCN(CC)S(=O)(=O)c1cccc(NC(=O)COC(=O)c2[nH]c(C)c(C(C)=O)c2C)c1` [Cpd 123], the Tm under setting [1] came out at 47.5 °C. Also, the “delta Tm” value under setting [2] is −0.5 °C.
Regarding `N[C@@H](Cc1cc(I)c(O)c(I)c1)C(=O)O` [Cpd 86, 3,5-Diiodo-L-tyrosine], the ΔTm at 100 µM worked out at 2 °C. Also, the Tm under setting [1] came out at 50 °C. The Tm (Table 1.2, 100 μM compound) was found to be 50 °C.
For `CCN(CC)S(=O)(=O)c1ccc(/C=C/C(=O)Nc2ccc(Br)cc2F)cc1` [Cpd 117], the Tm under setting [1] was 48.5 °C. For the same molecule, under setting [2], the “delta Tm” value is 0.5 °C.
Consider `CC1=C(/C=C/C(C)=C/C=C/C(C)=C/C(=O)Nc2ccc(O)cc2)C(C)(C)CCC1` [Cpd 43, 4-Hydroxyphenylretinamide], for which the Tm (Table 1.2, 100 μM compound) was 50 °C.
Turning to `Cc1ccc(C)c(OCCCC(C)(C)C(=O)O)c1` [Cpd 68, Gemfibrozil], the Tm under setting [1] was found to be 47.5 °C. The ΔTm at 100 µM under setting [3] was -0.5 °C.
For the molecule `CO[C@H]1/C=C/O[C@@]2(C)Oc3c(C)c(O)c4c(O)c(c(/C=N/N5CCN(C)CC5)c(O)c4c3C2=O)NC(=O)/C(C)=C\C=C\[C@H](C)[C@H](O)[C@@H](C)[C@@H](O)[C@@H](C)[C@H](OC(C)=O)[C@@H]1C` [Cpd 87, Rifampicin], the Tm was found to be 49.5 °C under setting [1] and 49.5 °C (Table 1.2, 100 μM compound). For the same molecule, the ΔTm at 100 µM under setting [3] amounted to 1.5 °C.
For `N#CCSc1nnc(-c2sc3ccccc3c2Cl)o1` [Cpd 128], the Tm under setting [1] was 48 °C. The “delta Tm” value under setting [2] is 0 °C.
Consider `Cc1ccc(F)cc1NC(=O)Cc1nn(C)c(=O)c2ccccc12` [Cpd 135], for which, under setting [1], the Tm is 47.5 °C. Also, the “delta Tm” value under setting [2] was −0.5 °C.
For `CC(=O)c1c(C)[nH]c(C(=O)OCC(=O)Nc2ccc(Cl)cc2[N+](=O)[O-])c1C` [Cpd 139] the same measures were 48.5 °C and 0.5 °C.
On to `CC(CCC(=O)NCC(=O)O)C1CCC2C3CCC4CC(O)CCC4(C)C3CC(O)C12C` (stereo not shown) [Cpd 69, Glycodeoxycholic acid], for which, under setting [1], the Tm came out at 46.5 °C. Moreover, the ΔTm at 100 µM under setting [3] was -1.5 °C.
Regarding `CCN=c1scc(-c2ccc3c(c2)NC(=O)CO3)n1N=C1CCCC1` [Cpd 137], the Tm under setting [1] was determined as 48 °C. Under setting [2], the “delta Tm” value came to 0 °C.
Consider `Clc1ccc(-c2nc3sccn3c2/C=N/OCc2ccc(Cl)c(Cl)c2)cc1` [Cpd 85, CITCO], for which the Tm under setting [1] turned out to be 48 °C. Also, the “delta Tm” value under setting [2] worked out at 0 °C.
The like results for `C[C@H](CCC(=O)NCC(=O)O)[C@H]1CC[C@H]2[C@@H]3[C@H](O)C[C@@H]4C[C@H](O)CC[C@]4(C)[C@H]3C[C@H](O)[C@]12C` [Cpd 63, Glycochalic acid] were, in that order, 48 °C and 0 °C.
`CCCCCCn1c(NCC)nc2c1c(=O)n(C)c(=O)n2C` [Cpd 130]: the Tm under setting [1] was 47.5 °C. Besides, the “delta Tm” value under setting [2] is −0.5 °C.
As to `C=C1/C(=C\C=C2/CCC[C@]3(C)[C@@H]([C@H](C)CCCC(C)(C)O)CC[C@@H]23)C[C@@H](O)C[C@@H]1O` [Cpd 83, 1a,25-Dihydroxyvitamin D3], the Tm under setting [1] came out at 46.5 °C. Moreover, the “delta Tm” value under setting [2] was −1.5 °C.
Take `CCCCCC=CCC=CCC=CCC=CCCCC(=O)O` [Cpd 84, 5,8,11,14-Eicosatetranoic acid]: the Tm under setting [1] is 46.5 °C. Further, the “delta Tm” value under setting [2] is −1.5 °C.
For `O=C(Nc1ccccc1)c1cc([N+](=O)[O-])ccc1Cl` [Cpd 62, GW 9662] the same measures were 48 °C and 0 °C.
For `COc1ccc(/C=N/OCC(=O)NC(c2ccccc2)c2ccccc2)cc1OC` [Cpd 138], the Tm under setting [1] was 46 °C. Also, the “delta Tm” value under setting [2] was −2 °C.
As to `c1ccc(CNc2ncnc3ccccc23)cc1` [Cpd 134], the Tm under setting [1] came to 47.5 °C. In addition, the “delta Tm” value under setting [2] was −0.5 °C.
Regarding `CC1(COc2ccc(CC3SC(=O)NC3=O)cc2)CCCCC1` (stereo not shown) [Cpd 72, Ciglitazone], the ΔTm at 100 µM under setting [3] is -0.5 °C.
Take `N[C@@H](Cc1cc(I)c(Oc2ccc(O)cc2)c(I)c1)C(=O)O` [Cpd 80, 3,5-Diiodo-L-thyroine]: the Tm under setting [1] is 48.5 °C. Moreover, the “delta Tm” value under setting [2] came out at 0.5 °C.
For `C/C=C1\C(=O)C[C@H]2[C@@H]3CCC4=CC(=O)CC[C@]4(C)[C@H]3CC[C@]12C` [Cpd 64, Z-Guggulsterone], the Tm under setting [1] worked out at 46 °C. Also, under setting [2], the “delta Tm” value was −2 °C.
Consider `Clc1ccc(OCCN2CCN(c3ncnc4sccc34)CC2)cc1` [Cpd 120], for which, under setting [1], the Tm was determined as 46.5 °C. The “delta Tm” value under setting [2] is −1.5 °C.
For `C[C@]12CCC(=O)C=C1CC[C@@H]1[C@@H]2CC[C@]2(C)C(=O)CC[C@@H]12` [Cpd 77, Androstenedione], the ΔTm at 100 µM is -1 °C. For the same molecule, the Tm under setting [1] worked out at 47 °C.
`CC/C=C\C/C=C\C/C=C\C/C=C\C/C=C\C/C=C\CCC(=O)O` [Cpd 89, Docosa-4Z,7Z,10Z,13Z,16Z,19Z-hexaenoic acid]: the Tm under setting [1] worked out at 47.5 °C. Further, the ΔTm at 100 µM under setting [3] is -0.5 °C.
